Results published in patent US20260193644A1, “Compositions and Methods For Modulation of Tumor Suppressors and Oncogenes” (FLAGSHIP PIONEERING INNOVATIONS VII, LLC, priority 2022, published 2026).
“And” between values parts separate entries of the source, which are not always exact repeats. Equal entries are not always repeated. Blank lines part the entries; values can stand above or below the molecule they belong to.

Assays:
Type in all cases: cell-based
[1] = molecular target: T1, C3AR1 (Homo sapiens, UniProt Q16581); test: PathHunter β-Arrestin C3AR1 human complement peptide GPCR agonist assay (gpcrMAX screening and hit-confirmation); conditions: for % activity with respect to known agonist, C3A Receptor Agonist: hit-confirmation
T1 sequence (Q16581 1-482): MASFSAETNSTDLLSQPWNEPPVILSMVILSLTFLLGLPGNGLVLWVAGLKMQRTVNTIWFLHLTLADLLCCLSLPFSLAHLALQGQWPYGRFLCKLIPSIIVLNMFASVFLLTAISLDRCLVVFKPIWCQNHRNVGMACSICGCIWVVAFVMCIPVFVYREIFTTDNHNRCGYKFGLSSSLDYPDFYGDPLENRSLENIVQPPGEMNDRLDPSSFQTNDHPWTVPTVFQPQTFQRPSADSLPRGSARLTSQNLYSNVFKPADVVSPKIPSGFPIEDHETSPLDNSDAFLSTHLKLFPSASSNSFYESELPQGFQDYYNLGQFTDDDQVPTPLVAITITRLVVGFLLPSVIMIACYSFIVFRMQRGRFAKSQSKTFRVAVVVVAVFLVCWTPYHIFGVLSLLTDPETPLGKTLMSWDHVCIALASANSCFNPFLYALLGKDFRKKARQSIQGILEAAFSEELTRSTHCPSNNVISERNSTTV
Experimental: SEQ ID NO: 30949 blocks CXCR4 and cancer cell migration, making it suitable in the treatment of multiple cancers. Whereas SEQ ID NO: 34229 agonizes C3AR1, a key regulator of immune response and inflammation. The target proteins SEQ ID NO: 30949 and SEQ ID NO: 34229 were treated with gpcrMAX, which is a comprehensive panel covering 168 G protein-coupled receptors (GPCRs) from over 60 distinct receptor families. This panel utilizes PathHunter® β-Arrestin technology (Eurofins DiscoverX). PathHunter β-Arrestin GPCR cell lines are engineered to co-express the ProLink™ (PK) tagged GPCR and the Enzyme Acceptor (EA) tagged β-Arrestin. Activation of the GPCR-PK induces β-Arrestin-EA recruitment, forcing complementation of the two β-galactosidase enzyme fragments (EA and PK). The resulting functional enzyme hydrolyzes substrate to generate a chemiluminescent signal.
Cell Handling: PathHunter® cell lines were expanded from freezer stocks according to standard procedures. Cells were seeded in a total volume of 20 μL into white walled, 384-well microplates and incubated at 37° C. for the appropriate time prior to testing. […]
Signal Detection: Assay signal was generated through a single addition of 12.5 or 15 μL (50% v/v) of PathHunter® Detection reagent cocktail, followed by a one-hour incubation at room temperature. Microplates were read following signal generation with a PerkinElmer Envision™ instrument for chemiluminescent signal detection.
Data Analysis: Compound activity was analyzed using CBIS data analysis suite (ChemInnovation, CA). For agonist mode assays, percentage activity was calculated using the following formula: % Activity=100%×(mean RLU of test sample−mean RLU of vehicle control)/(mean MAX control ligand−mean RLU of vehicle control). For antagonist mode assays, percentage inhibition was calculated using the following formula: % Inhibition=100%×(1−(mean RLU of test sample−mean RLU of vehicle control)/(mean RLU of EC80 control−mean RLU of vehicle control)).

[2] = test system: U2OS cells; test: Caspase-Glo 3/7 apoptosis assay, peptide-treated U2OS cells; conditions: for z-score compared to vehicle control (peptides inducing significant apoptosis): listed = significant
Experimental: (§1) Cell Culture: Tumor cell lines HCT-116 (Colon Cancer Cell line, ATCC) and U2OS (Osteoscarcoma Cell line, ATCC) cells were grown adherently in ATCC-formulated McCoy's 5a medium supplemented with 10% FBS and 1× penicillin-streptomycin at 37° C. (5% CO2). Jurkat cells (acute T-cell leukemia cell line, ATCC) were grown as suspension cultures in ATCC-formulated RPMI-1640 supplemented with 10% FBS and 1× penicillin-streptomycin at 37° C. (5% CO2). HEP-G2 cells (Liver Cancer Cell line, ATCC) cells were grown adherently in ATCC-formulated Eagle's Minimum Essential Medium (EMEM) supplemented with 10% FBS and 1× penicillin-streptomycin at 37° C. (5% CO2).
(§2) Peptide Treatment: Target protein SEQ ID NO: 37997 was synthesized through Fluorenylmethyloxycarbonyl (Fmoc) protection group chemistry using Solid Phase Peptide Synthesis (SPPS). 5 μM of target peptide and control peptides were added to a 96 well plate containing 10,000 cells (100 μL/well). A white-walled 96-well plate adequate for cell culture and compatible with the luminometer was used. (Corning)
(§3) Apoptosis Assay: Following 24 hrs of peptide treatment, an equal volume reconstituted Caspase-Glo® 3/7 assay reagent mixture (Promega) was added to the cells. The contents of wells were gently mixed using a plate shaker at 300-500 rpm for 30 seconds. The plate was then Incubate at room temperature for 3 hours. The treated plates were then read for luminescence on Promega™ GloMax® Plate Reader. A blank reaction that contained caspase-Glo® 3/7 reagent, vehicle and cell culture medium without cells was used to measure background luminescence. The blank reaction values were subtracted from experimental values. A negative control that contained caspase-Glo® 3/7 reagent and vehicle-treated cells in medium was included to determine the basal caspase activity of the cell culture system. Significant difference in apoptosis was determined using ANOVA analysis by comparing cells treated with SEQ ID NO: 37997 peptide to cells treated with an irrelevant control peptide, or vehicle control treated cells.

[3] = test system: Jurkat cells; test: Caspase-Glo 3/7 apoptosis assay, peptide-treated Jurkat cells; conditions: listed = significant
Experimental: as §1, §2, §3

[4] = test system: U2OS cells; test: WST-1 proliferation assay on U2OS cells treated with peptide
[5] = test system: HCT116 cells; test: WST-1 proliferation assay on HCT116 cells treated with peptide
Experimental: Proliferation: HCT-116 cells were plated in 96 well plate (5,000 cells/well) grown in standard media supplemented with 10% FBS. After 48 hours incubation at 37° C. (5% CO2), the cells are subjected to the WST-1 ([…]) assay. The WST-1 assay (Sigma) is a measure of the metabolic activity (i.e. proliferative rate) of cells. […]

[6] = test system: HCT-116 cells; test: Caspase-Glo 3/7 apoptosis assay, peptide-treated HCT-116 cells; conditions: for peptides inducing significant apoptosis (z-score vs vehicle control): listed = significant
Experimental: as §1, §2, §3

[7] = test system: HCT116 colon cancer cell line; test: WST-1 proliferation assay on HCT116 cells stably over-expressing target protein; conditions: 48 hours
Experimental: Over-expression: Stable over-expression tumor cell lines were made by transduction using lentivirus. For virus production, HEK-293T cells were cultured in DMEM with high glucose and GlutaMAX™ medium (ThermoFisher) supplemented with 10% FBS. After 24 h, cells were transfected using lipofectamine 3000 (ThermoFisher) of Lentiviral packaging plasmid mix (CELLECTA) and pGenLenti plasmids (GenScript Inc) containing: 1) no insert, 2) Target Protein encoding sequence, and 3) the AP2A1 protein (positive control for cell proliferation; https://doi.org/10.1038/sj.one.1205216), into HCT116 (Colon cancer cell line; ATCC). A Myc-tag (EQKLISEEDL) was added to the c-terminus of the expressed protein. After 48 hr post-transfection, culture media containing viruses was collected, loaded onto a 10 ml syringe and filtered through a 0.45 μm filter. For cell transduction, HCT116 colorectal cancer cells were seeded in 6-well plates, the virus was added to the cells. After post-transduction, stable cell mixed populations are selected for with puromycin for 14 days. Expression of the Target Protein and controls are confirmed by immunoblot of 50 μg of cell lysate using anti-myc-tag polyclonal antibody (CST).
Proliferation: Polyclonal cell lines that over-express the Target Protein or control, wild-type HCT-116 cells, were plated in 96 well plate (10,000 or 5,000 cells per well) grown in standard media in both low serum (0.1% FBS) and high serum (10% FBS) conditions, respectively. After 48 hours, the cells are subjected to the WST-1 ([…]) assay. The WST-1 assay (Sigma) is a measure of the metabolic activity of group of cells. The higher the metabolic activity the higher the proliferation rate. Significant differences in proliferation are determined by comparing protein-expressing cell lines with a stable cell line of the empty expression vector (control) using ANOVA analysis.

[8] = Low sera (continued), 0.5 uM, head 3 SD
[9] = 5 μM peptide, 24 hrs, vs vehicle control
[10] = Low sera (continued), 0.1 uM, head 4 SD

- GPCR ligand mode at C3AR1 ([1]; gpcrMAX panel): agonist of C3AR1
- % activity with respect to known agonist, C3A Receptor Agonist ([1]; 0.3 μM): significant activity
- % activity with respect to known agonist, C3A Receptor Agonist ([1]; 1 μM): significant activity
Molecule: SEQ ID NO: 34229: novel peptide GPCR ligand that agonizes C3AR1; sequence only in Sequence Listing (MWILRDRAVHELQAVLLALVLGR; listed as Homo sapiens)
- z-score compared to vehicle control (peptides inducing significant apoptosis) [2]: SEQ ID NO: 34229
- peptides inducing significant apoptosis vs vehicle control [3]: SEQ ID NO: 34229

Molecule: SEQ ID NO: 27193: ORF peptide; sequence only in Sequence Listing (LRFKVLLRVLFFMAPVPPQVFGQ; listed as Homo sapiens)
- z-score compared to vehicle control (peptides inducing significant apoptosis) [2]: SEQ ID NO: 27193
- proliferation hit score, High sera ([4]; 5 uM, head 5 SD): 15.33 SD
- proliferation hit score, Low sera [4, 8]: 1.975 SD
- proliferation hit score, Low sera ([4]; Low sera, 5 uM, head 2 SD): 2.319 SD
- proliferation hit score, High sera ([5]; 0.5 uM, head 3 SD): 1.079 SD
- proliferation hit score, High sera ([5]; 5 uM, head 3 sd): 0.8327 SD
- proliferation hit score, Low sera [5, 8]: 1.081 SD
- proliferation hit score, Low sera ([5]; Low sera, 5 uM, head 2 SD): 0.6897 SD
- peptides inducing significant apoptosis (z-score vs vehicle control) [6]: SEQ ID NO: 27193
- peptides inducing significant apoptosis vs vehicle control [3]: SEQ ID NO: 27193

Molecule: SEQ ID NO: 37997: synthetically produced target protein, secreted tumor suppressor; sequence only in Sequence Listing (MSRLSLSWESLTNAIWPLDLQDIKGYLPNPLPQRVNLRKQILSISKEPN; listed as Homo sapiens)
- basal apoptosis levels [2, 9]: increase in basal apoptosis levels
- proliferation hit score, High sera ([4]; 1 uM, head 5 SD): −5.9599 SD
- proliferation hit score, High sera ([4]; 10 uM, head 8 SD): −13.23 SD
- proliferation hit score, Low sera ([4]; Low sera (continued), 0.1 uM, head 2 SD): −2.359 SD
- proliferation hit score, Low sera [4, 10]: 1.922 SD
- proliferation hit score, Low sera ([4]; Low sera, 1 uM, head 5 SD): 0.3203 SD
- proliferation hit score, Low sera ([4]; Low sera, 10 uM, head 6 SD): −16.09 SD
- proliferation (WST-1) vs irrelevant peptide or untreated cells ([5]; 10 μM, 10% serum, 48 hours): significantly decreases proliferation
- proliferation hit score, High sera ([5]; 0.1 uM, head 3 SD): −3.114 SD
- proliferation hit score, High sera ([5]; 1 uM, head 2 SD): −5.8 SD
- proliferation hit score, High sera ([5]; 10 uM, head 4 SD): −11.51 SD
- proliferation hit score, Low sera ([5]; Low sera, 1 uM, head 3 SD): −3.015 SD
- proliferation hit score, Low sera ([5]; Low sera, 10 uM, head 3 SD): −6.915 SD
- basal apoptosis levels [6, 9]: increase in basal apoptosis levels

B1: SEQ ID NO: 27000: ORF peptide; sequence only in Sequence Listing (peptide, listed as Homo sapiens)
chain: MNLNPRLRLQVISFHPHPKALAVTLLPALTQSLCLCMASCVYSGPKGFLFLFFPQTAQEKHMKNIT
- z-score compared to vehicle control (peptides inducing significant apoptosis) [2]: SEQ ID NO: 27000
- proliferation hit score, Low sera [4, 10]: 7.758 SD and 7.542 SD
- proliferation hit score, Low sera ([4]; Low sera, 1 uM, head 5 SD): 5.685 SD and 9.031 SD
- peptides inducing significant apoptosis (z-score vs vehicle control) [6]: SEQ ID NO: 27000
- peptides inducing significant apoptosis vs vehicle control [3]: SEQ ID NO: 27000

B2: SEQ ID NO: 27301: target protein over-expressed (Myc-tagged) in stable HCT116 cell line; oncogene (protein, listed as Homo sapiens)
chain: MVEKSHPSSLPTLPQPLNHCPETYMLLSAAPSGASQLLSTLTLFLKKHRMDIRTISLRMLLSHTGKLAL
modifications: Myc tag
notes: oncogene
- proliferation (WST-1) on over-expression vs Empty Vector ([7]; high serum (10% FBS)): significantly increases proliferation
- proliferation (WST-1) on over-expression vs Empty Vector ([7]; low serum (0.1% FBS)): significantly increases proliferation
